Test results: ChEMBL document CHEMBL1201862, “PubChem BioAssay data set” (2004)
Calls of active or inactive are those of the source.

Legend:
[1] = molecular target: T1, RNA-binding protein pos-1 (Caenorhabditis elegans, UniProt G5EF15); assay: inhibitors of POS-1/mex-3 RNA binding, dose response, biochemical, fluorescence polarization (AID 1964);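 also: purified POS-1 fused to maltose binding protein made in E. coli; potency of compounds blocking POS-1 binding to fluorescent RNA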
T1 sequence (G5EF15 whole entry): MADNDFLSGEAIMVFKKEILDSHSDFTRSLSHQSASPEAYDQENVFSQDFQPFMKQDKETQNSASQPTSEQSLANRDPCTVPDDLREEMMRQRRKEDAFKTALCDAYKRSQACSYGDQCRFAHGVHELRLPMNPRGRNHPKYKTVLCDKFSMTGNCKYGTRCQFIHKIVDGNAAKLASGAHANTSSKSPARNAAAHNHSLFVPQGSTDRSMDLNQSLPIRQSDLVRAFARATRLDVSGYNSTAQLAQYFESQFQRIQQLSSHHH

[2] = molecular target: T2, Zinc finger protein mex-5 (Caenorhabditis elegans, UniProt Q9XUB2); assay: MEX-5/TCR-2 RNA interaction inhibitors, dose response, biochemical, C. elegans, fluorescence polarization (AID 1960)
T2 sequence (Q9XUB2 whole entry): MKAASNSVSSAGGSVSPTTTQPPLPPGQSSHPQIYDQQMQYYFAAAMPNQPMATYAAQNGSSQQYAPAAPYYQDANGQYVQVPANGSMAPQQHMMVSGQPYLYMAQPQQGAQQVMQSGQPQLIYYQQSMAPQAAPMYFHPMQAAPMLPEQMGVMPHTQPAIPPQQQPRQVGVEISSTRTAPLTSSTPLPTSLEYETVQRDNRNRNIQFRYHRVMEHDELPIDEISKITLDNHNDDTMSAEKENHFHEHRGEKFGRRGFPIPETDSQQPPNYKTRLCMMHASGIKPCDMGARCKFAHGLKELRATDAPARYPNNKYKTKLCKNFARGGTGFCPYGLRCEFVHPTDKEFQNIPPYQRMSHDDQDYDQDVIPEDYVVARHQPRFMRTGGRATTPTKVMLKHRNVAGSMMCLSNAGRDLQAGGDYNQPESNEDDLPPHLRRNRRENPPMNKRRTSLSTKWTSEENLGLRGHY

[3] = growth suppression of PTEN-null colon cells, dose response, cell-based, HCT116 PTEN knockout (AID 1047); type: functional;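 also: HCT116 colon tumor cells with PTEN knocked out; cells exposed to compound for 60 hours before readout; potency for loss of cell viability measured by luminescence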
[4] = growth suppression of beta-catenin-knockout colon cells, dose response, cell-based, HCT116, human colon tumor (AID 1045); type: functional;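 also: HCT116 colon tumor cells with beta catenin knocked out; cells exposed to compound for 60 hours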
ORF 73 = ORF 73 (Human herpesvirus 8, UniProt O40947); assay: inhibitors of C-LANA binding to LBS DNA, dose response, biochemical, fluorescence polarization, cherry-picked samples (AID 504725); parameters: species or system Human gammaherpesvirus 8;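 also: fluorescence polarization of a labeled DNA duplex reporting LANA DNA binding; potency is for inhibitors that block LANA binding to the DNA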
Troponin, cardiac muscle = Troponin, cardiac muscle (Homo sapiens, UniProt P19429+P45379+P63316); assay: Fluorescence-based biochemical high throughput dose response assay for activators of the calcium sensitivity of cardiac Regulated Thin Filaments (RTF). [Related pubchem assays (depositor defined):AID493008, AID493018, AID504382, AID504383]; type: protein-complex assay
Keap1/Nrf2 = Keap1/Nrf2 (Homo sapiens, UniProt Q14145); assay: Keap1-Nrf2 protein-protein interaction inhibitors, dose response, biochemical, fluorescence polarization, cherry-picked samples (AID 588683)
[5] = molecular target: Dual specificity tyrosine-phosphorylation-regulated kinase 1A (Rattus norvegicus, UniProt Q63470); type: biochemical, Homo sapiens
[6] = molecular target: T3, Long-chain-fatty-acid--AMP ligase FadD28 (Mycobacterium tuberculosis, UniProt P9WQ59); assay: Fluorescence polarization aasay to screen for inhibitors that compete for the binding of FadD28 to a bisubstrate Measured in Biochemical System Using Plate Reader - 2147-01_Inhibitor_Dose_CherryPick_Activity.; type: functional, Mycobacterium tuberculosis H37Rv
T3 sequence (P9WQ59 whole entry): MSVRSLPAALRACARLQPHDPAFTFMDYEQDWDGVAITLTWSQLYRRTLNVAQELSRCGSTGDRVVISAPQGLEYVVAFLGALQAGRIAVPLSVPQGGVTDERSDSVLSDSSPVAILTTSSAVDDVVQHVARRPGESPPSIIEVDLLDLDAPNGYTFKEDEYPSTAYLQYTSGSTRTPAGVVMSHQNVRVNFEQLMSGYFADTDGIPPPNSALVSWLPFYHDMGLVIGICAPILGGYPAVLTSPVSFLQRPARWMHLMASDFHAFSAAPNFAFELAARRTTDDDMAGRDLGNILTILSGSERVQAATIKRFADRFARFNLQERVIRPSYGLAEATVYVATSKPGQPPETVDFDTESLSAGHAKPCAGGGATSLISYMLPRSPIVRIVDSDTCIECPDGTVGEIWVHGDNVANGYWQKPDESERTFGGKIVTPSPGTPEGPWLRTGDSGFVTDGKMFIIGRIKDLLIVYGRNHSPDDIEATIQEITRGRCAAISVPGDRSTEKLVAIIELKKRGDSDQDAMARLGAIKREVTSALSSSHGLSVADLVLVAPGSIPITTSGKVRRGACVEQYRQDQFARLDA

Fibrinogen beta chain [7] = molecular target: T4, Fibrinogen beta chain (Homo sapiens, UniProt P02675); assay: Fluorescence polarization-based biochemical high throughput dose response assay to identify inhibitors that disrupt the binding of a cyclic peptide (Tn6) to the fibrin proteolytic product D-Dimer and fragment E complex [DD(E )].
Fibrinogen beta chain [8] = molecular target: T4, Fibrinogen beta chain; assay: Fluorescence polarization-based biochemical high throughput dose response assay to identify inhibitors that disrupt the binding of a cyclic peptide (Tn7) to the fibrin proteolytic product D-Dimer and fragment E complex [DD(E )].
[9] = molecular target: T5, Voltage-gated N-type calcium channel alpha-1B subunit/Amyloid beta A4 precursor protein-binding family A member 1 (Homo sapiens, UniProt Q00975+Q02410); assay: disruptors of Mint-PDZ/N-type channel peptide interaction – biochemical, HTRF, set 2, SAR follow-up (AID 434980); type: functional
[10] = molecular target: T5, Voltage-gated N-type calcium channel alpha-1B subunit/Amyloid beta A4 precursor protein-binding family A member 1; assay: disruptors of Mint-PDZ/N-type channel peptide interaction – biochemical, HTRF, SAR follow-up (AID 2489); type: functional
[11] = molecular target: Scavenger receptor class B member 1 (Mus musculus, UniProt Q61009); assay: inhibitors of SR-BI mediated HDL lipid uptake, dose response, ldlA[mSR-BI] cells, fluorescence, cherry pick (AID 493194); type: functional, cell-based;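 also: cellular uptake of fluorescent DiI-labeled HDL measured as cell fluorescence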
[12] = molecular target: T6, Dual specificity protein phosphatase 3 (Homo sapiens, UniProt P51452); assay: SAR VHR1 absorbance Assay for In Vitro dose response studies. [Related pubchem assays (depositor defined):AID1654, AID1661, AID1878, AID1992, AID2004]
[13] = molecular target: T6, Dual specificity protein phosphatase 3; assay: SAR VHR1 Fluorescent Assay for In Vitro dose response studies. [Related pubchem assays (depositor defined):AID1654, AID1661, AID1878, AID1992, AID2004, AID2070, AID2085]; type: functional
[14] = molecular target: T7, Tyrosine-protein phosphatase non-receptor type 7 (Homo sapiens, UniProt P35236); assay: redox-dependent HePTP inhibition, mechanism study, biochemical, fluorescence (AID 2068); type: functional
T7 sequence (P35236 whole entry): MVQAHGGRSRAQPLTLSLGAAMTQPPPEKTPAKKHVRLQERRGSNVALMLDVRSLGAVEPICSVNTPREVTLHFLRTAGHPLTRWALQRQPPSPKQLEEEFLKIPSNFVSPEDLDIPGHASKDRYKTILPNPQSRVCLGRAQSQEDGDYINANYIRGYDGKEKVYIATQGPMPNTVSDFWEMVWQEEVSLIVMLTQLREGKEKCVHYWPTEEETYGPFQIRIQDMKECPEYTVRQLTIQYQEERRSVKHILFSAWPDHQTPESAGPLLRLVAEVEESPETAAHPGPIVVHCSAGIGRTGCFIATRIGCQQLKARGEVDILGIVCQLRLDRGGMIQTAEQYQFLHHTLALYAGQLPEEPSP

[15] = molecular target: T8, Dual specificity protein phosphatase 6 (Rattus norvegicus, UniProt Q64346); type: functional;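 also: confirmatory in vitro dose-response testing of MKP-3 inhibition; recombinant His-tagged MKP-3 made in E. coli BL21 with OMFP substrate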
T8 sequence (Q64346 whole entry): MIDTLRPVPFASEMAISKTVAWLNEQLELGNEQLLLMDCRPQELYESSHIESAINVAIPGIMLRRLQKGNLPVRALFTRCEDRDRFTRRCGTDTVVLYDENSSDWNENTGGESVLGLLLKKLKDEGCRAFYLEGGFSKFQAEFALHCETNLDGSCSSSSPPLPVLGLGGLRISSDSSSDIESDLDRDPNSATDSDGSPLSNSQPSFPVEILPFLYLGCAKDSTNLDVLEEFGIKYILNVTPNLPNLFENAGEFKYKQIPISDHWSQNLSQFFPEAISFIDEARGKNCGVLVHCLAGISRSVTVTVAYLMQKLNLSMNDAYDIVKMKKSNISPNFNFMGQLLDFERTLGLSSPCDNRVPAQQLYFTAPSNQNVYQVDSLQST

T5 sequence (Q00975 whole entry): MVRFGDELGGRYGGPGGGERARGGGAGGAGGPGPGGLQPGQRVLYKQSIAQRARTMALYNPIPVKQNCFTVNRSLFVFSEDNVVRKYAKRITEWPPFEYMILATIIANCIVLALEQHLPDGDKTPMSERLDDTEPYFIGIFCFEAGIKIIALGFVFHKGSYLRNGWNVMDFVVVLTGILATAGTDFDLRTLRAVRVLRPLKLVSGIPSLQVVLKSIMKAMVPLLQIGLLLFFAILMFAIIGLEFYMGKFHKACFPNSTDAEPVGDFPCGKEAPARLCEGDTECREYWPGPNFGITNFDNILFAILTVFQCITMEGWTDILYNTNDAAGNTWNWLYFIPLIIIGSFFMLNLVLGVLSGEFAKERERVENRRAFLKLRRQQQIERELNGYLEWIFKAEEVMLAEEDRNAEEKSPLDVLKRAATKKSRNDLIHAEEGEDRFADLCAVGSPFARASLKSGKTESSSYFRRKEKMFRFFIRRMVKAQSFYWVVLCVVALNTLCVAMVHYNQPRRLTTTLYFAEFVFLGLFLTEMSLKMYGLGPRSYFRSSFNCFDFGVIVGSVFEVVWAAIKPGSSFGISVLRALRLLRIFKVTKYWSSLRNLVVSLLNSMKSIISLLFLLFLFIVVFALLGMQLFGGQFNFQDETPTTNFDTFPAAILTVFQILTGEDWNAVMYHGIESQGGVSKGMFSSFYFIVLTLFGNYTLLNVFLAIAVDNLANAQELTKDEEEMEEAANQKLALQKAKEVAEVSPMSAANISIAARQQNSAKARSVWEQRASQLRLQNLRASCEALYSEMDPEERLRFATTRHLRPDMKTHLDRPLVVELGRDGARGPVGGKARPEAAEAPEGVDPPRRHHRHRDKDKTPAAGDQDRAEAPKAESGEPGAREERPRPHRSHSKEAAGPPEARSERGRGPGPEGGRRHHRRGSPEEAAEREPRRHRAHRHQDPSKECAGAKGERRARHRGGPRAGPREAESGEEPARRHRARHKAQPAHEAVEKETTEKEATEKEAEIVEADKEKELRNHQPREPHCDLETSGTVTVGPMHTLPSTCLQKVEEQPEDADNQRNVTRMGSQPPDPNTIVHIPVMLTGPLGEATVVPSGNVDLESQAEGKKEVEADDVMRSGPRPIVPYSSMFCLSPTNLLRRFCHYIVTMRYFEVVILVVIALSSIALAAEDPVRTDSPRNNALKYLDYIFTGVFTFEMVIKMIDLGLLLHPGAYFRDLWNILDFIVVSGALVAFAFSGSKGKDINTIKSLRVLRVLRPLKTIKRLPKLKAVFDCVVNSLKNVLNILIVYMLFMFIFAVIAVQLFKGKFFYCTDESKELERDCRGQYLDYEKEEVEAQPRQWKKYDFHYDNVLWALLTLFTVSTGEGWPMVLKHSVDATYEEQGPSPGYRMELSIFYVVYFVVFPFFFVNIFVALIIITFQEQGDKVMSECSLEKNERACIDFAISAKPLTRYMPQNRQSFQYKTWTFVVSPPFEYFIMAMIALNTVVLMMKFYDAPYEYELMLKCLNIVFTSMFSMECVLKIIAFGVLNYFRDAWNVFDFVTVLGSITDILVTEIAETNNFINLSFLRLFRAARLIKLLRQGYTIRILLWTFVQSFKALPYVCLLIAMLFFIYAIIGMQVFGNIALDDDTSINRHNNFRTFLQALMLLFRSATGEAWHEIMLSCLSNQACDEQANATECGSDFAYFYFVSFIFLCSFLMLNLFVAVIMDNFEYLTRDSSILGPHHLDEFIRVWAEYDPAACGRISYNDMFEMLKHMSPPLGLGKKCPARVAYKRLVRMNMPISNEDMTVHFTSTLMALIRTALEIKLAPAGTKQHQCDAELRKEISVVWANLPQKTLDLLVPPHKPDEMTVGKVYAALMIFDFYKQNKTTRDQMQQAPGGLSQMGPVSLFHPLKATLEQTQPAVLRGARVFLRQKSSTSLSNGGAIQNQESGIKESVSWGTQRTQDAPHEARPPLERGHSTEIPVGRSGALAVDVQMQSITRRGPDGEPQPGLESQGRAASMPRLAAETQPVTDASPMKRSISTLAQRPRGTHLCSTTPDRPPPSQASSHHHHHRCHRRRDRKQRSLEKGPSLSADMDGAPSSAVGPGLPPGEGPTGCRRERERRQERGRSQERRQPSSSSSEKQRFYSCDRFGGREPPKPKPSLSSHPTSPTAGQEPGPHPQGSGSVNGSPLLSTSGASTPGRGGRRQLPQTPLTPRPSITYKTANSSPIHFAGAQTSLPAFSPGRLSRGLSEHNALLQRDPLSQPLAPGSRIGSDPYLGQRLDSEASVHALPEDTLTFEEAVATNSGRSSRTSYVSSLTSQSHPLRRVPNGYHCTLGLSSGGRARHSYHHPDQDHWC
T5 sequence (Q02410 whole entry): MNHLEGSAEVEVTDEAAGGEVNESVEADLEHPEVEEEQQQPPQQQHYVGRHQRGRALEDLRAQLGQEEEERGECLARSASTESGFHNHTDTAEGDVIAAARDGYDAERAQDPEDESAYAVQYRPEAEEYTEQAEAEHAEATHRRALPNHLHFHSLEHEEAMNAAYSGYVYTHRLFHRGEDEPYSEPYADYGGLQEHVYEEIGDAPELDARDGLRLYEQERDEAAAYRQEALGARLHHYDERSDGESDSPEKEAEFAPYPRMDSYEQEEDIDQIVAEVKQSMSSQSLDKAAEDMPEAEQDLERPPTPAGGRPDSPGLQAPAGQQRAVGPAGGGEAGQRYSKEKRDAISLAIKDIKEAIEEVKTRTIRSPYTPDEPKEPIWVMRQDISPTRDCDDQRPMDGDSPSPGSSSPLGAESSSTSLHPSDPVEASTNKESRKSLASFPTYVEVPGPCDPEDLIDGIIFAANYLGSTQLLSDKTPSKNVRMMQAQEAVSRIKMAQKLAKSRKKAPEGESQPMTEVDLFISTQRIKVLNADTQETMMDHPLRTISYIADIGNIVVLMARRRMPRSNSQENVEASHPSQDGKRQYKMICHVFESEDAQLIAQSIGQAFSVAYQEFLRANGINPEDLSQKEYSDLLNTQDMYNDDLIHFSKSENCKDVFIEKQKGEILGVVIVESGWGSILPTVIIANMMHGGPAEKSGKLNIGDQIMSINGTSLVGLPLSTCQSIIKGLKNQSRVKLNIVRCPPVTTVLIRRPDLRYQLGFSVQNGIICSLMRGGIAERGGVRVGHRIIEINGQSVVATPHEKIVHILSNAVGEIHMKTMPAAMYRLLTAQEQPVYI
T4 sequence (P02675 whole entry, the tested form may be a part): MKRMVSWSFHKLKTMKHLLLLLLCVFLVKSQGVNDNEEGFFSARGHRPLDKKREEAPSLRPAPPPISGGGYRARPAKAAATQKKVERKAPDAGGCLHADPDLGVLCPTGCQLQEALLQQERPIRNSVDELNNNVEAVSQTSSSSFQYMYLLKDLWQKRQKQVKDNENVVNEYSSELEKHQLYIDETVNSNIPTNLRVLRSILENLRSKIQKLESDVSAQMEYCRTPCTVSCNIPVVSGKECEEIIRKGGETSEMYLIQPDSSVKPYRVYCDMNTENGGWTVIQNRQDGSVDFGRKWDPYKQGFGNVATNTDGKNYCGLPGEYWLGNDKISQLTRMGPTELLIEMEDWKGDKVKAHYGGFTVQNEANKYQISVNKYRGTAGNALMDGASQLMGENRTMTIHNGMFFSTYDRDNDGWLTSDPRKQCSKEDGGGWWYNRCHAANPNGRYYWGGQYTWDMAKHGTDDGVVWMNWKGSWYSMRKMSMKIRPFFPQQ
T6 sequence (P51452 whole entry): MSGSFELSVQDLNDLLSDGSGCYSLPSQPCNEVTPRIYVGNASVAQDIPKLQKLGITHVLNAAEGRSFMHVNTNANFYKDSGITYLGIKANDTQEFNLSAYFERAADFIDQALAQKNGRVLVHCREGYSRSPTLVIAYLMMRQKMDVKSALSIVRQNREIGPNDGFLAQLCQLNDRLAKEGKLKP
Sequence of Keap1/Nrf2 (Q16236 whole entry): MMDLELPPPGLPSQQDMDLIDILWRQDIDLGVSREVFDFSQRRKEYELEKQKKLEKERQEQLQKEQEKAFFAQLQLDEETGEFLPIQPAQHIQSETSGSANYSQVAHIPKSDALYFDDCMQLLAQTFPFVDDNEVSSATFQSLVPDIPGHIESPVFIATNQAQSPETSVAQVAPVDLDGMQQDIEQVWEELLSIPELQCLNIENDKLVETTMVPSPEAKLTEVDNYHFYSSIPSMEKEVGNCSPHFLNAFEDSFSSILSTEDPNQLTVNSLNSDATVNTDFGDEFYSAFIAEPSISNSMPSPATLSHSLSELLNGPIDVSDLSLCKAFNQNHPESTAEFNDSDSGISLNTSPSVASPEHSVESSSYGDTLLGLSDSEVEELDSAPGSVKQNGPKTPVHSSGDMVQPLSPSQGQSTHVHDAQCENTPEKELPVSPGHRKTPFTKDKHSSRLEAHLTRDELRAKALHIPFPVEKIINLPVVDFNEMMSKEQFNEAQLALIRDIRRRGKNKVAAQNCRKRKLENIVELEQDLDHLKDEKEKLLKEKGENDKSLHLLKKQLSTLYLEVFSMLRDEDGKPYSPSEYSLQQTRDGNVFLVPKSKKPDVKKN
Sequence of Keap1/Nrf2 (Q14145 whole entry): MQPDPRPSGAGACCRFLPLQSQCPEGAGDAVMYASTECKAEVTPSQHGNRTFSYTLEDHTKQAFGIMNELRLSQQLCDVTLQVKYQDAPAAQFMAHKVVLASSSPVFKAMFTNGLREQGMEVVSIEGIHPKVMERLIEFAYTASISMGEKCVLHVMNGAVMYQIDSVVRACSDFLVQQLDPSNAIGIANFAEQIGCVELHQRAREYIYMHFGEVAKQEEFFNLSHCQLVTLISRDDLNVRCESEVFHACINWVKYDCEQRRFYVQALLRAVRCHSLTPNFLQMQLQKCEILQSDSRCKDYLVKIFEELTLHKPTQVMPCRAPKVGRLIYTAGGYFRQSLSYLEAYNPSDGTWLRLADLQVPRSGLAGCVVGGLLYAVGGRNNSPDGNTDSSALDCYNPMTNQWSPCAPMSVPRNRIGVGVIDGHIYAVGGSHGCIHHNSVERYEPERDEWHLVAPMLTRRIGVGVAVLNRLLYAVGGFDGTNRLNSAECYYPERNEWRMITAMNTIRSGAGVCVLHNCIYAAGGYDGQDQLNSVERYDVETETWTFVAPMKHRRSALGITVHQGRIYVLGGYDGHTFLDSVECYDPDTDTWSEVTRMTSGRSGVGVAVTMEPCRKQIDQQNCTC

## N#CC1=C(N)Oc2ccc3ccc(O)cc3c2C1c1ccsc1 (stereo not drawn)
[1]
  EC50: 76.1 µM (inconclusive)
[2]
  EC50: 11 µM (inconclusive)
[3]
  EC50: 10.4 µM (active)
[4]
  EC50: 15.4 µM (active)
ORF 73
  AC50: 51.6 µM (active)
Troponin, cardiac muscle
  EC50: 18.8 µM (inactive)
Keap1/Nrf2
  AC50: > 52 µM (inactive)
[5]
  AC50: 8.56 µM (active)
[6]
  AC50: 52.3 µM (active)
Fibrinogen beta chain [7]
  IC50: 8.51 µM (active)
Fibrinogen beta chain [8]
  IC50: > 83.3 µM (inactive)

## O=C(NCCc1ccccc1)c1cc(-c2ccco2)nc2ccccc12
[9]
  IC50: > 56.8 µM (inactive)
[10]
  IC50: > 56.8 µM (inactive)

## COC(=O)c1cn(C(=O)c2cccc3ccccc23)c2ccccc12
[11]
  AC50: 25.1 µM (active)

## CNC(=O)c1cn(CCOc2ccccc2)c2ccccc12
[12]
  IC50: > 100 µM (inactive)
[13]
  IC50: > 100 µM (inactive)
[14]
  IC50: 86.8 µM (active)
[15]
  IC50: > 100 µM (inactive)
